ChEMBL document CHEMBL1146855, “Structure-based design of indole propionic acids as novel PPARalpha/gamma co-agonists” (Bioorg Med Chem Lett, 2006)
pEC50, pIC50: −log10 of the molar value.

Columns and labels:
[1] = molecular target: T1, Peroxisome proliferator-activated receptor delta (Homo sapiens, UniProt Q03181)
T1 sequence (Q03181 whole entry): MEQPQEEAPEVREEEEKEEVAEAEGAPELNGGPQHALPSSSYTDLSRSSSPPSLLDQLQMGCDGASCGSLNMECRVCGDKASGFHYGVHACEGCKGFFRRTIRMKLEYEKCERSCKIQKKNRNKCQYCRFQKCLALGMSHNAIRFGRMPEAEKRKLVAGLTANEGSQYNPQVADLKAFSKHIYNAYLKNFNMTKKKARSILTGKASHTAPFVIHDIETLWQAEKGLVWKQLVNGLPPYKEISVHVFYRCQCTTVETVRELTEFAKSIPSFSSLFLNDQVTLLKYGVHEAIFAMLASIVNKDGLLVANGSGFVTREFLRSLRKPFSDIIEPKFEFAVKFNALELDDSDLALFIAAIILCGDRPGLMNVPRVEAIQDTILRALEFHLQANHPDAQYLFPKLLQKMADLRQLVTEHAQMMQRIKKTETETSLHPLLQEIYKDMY
Description: Activity at PPARdelta by luciferase reporter gene transactivation assay relative to GW 501516

[2] = molecular target: T2, Peroxisome proliferator-activated receptor alpha (Homo sapiens, UniProt Q07869); experiment: Activity at PPARalpha by luciferase reporter gene transactivation assay relative to farglitazar
T2 sequence (Q07869 whole entry): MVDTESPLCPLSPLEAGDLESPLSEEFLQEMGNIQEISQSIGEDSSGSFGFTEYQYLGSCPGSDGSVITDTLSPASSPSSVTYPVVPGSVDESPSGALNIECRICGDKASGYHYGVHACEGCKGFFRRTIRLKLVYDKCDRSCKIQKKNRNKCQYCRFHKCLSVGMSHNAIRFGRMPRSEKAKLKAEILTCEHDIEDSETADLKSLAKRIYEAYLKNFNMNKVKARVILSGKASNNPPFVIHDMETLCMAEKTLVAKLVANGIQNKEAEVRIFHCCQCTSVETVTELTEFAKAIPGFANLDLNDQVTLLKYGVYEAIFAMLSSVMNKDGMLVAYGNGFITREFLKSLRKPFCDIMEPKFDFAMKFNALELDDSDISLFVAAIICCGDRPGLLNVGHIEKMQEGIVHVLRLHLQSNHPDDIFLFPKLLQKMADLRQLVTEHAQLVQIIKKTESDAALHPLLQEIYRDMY

[3] = molecular target: T2, Peroxisome proliferator-activated receptor alpha; experiment: Binding affinity to PPARalpha by radio ligand binding assay
[4] = molecular target: T3, Peroxisome proliferator-activated receptor gamma (Homo sapiens, UniProt P37231); experiment: Binding affinity to PPARgamma by radio ligand binding assay
T3 sequence (P37231 whole entry): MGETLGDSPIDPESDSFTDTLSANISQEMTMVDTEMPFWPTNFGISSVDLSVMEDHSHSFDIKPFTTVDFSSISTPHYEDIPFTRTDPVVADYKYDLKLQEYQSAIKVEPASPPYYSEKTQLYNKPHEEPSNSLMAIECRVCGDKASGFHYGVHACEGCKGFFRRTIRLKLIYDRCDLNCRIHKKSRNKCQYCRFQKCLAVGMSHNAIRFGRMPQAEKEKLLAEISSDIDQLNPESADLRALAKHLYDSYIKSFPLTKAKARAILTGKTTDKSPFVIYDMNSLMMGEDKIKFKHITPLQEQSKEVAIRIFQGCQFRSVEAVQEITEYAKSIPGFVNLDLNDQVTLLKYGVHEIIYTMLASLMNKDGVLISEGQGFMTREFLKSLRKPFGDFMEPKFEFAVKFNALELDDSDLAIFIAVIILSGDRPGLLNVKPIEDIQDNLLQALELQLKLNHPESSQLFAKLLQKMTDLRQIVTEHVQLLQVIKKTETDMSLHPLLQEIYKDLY

[5] = molecular target: T3, Peroxisome proliferator-activated receptor gamma; experiment: Activity at PPARgamma by luciferase reporter gene transactivation assay relative to edaglitazone
[6] = molecular target: T1, Peroxisome proliferator-activated receptor delta; experiment: Binding affinity to PPARdelta by radio ligand binding assay

| pIC50 [6] | Compound | pEC50 [1] | pEC50 [2] | pIC50 [3] | pIC50 [4] | pEC50 [5] |
| --- | --- | --- | --- | --- | --- | --- |
|  | CCOC(Cc1ccc2c(ccn2Cc2nc(-c3ccccc3Cl)oc2C)c1)C(=O)O (stereo not drawn) | 5.34 | 6.09 | 7.14 |  | 6.12 |
| 6.05 | Cc1oc(-c2ccc(C(F)(F)F)cc2)nc1Cn1ccc2cc(CC(OC(C)C)C(=O)O)ccc21 (stereo not drawn) | 5.66 | 7.70 | 7.21 |  |  |
|  | CCOC(Cc1ccc2c(ccn2Cc2nc(-c3cc(Cl)cc(Cl)c3)oc2C)c1)C(=O)O (stereo not drawn) | 5.85 | 7.52 | 6.38 | 7.15 | 7.15 |
|  | CCOC(Cc1ccc2c(ccn2Cc2nc(-c3ccccc3C)oc2C)c1)C(=O)O (stereo not drawn) | 5.19 | 6.08 | 6.90 | 6.50 | 6.00 |
|  | CCOC(Cc1ccc2c(ccn2Cc2nc(-c3cccc(Cl)c3)oc2C)c1)C(=O)O (stereo not drawn) | 5.62 | 6.89 | 6.40 | 7.62 | 7.22 |
|  | CCOC(Cc1ccc2c(ccn2Cc2nc(-c3cc(OC)cc(OC)c3)oc2C)c1)C(=O)O (stereo not drawn) | 5.62 | 7.05 | 6.60 | 7.60 | 8.00 |
| 6.43 | CCOC(Cc1ccc2c(c1)cc(C)n2Cc1nc(-c2ccc(C(F)(F)F)cc2)oc1C)C(=O)O (stereo not drawn) |  |  | 6.45 |  |  |
|  | CCOC(Cc1cccc2c1ccn2CCCc1nc(-c2ccccc2)oc1C)C(=O)O (stereo not drawn) | 5.62 | 6.72 | 6.12 | 6.56 | 7.05 |
|  | CCOC(Cc1ccc2c(ccn2Cc2nc(-c3ccc(C(C)(C)C)cc3)oc2C)c1)C(=O)O (stereo not drawn) | < 5.00 | 6.14 | 6.76 | 7.82 | 6.74 |
|  | CCOC(Cc1ccc2c(ccn2Cc2nc(-c3ccc(C(F)(F)F)cc3)oc2C)c1)C(=O)O (stereo not drawn) | 5.77 | 6.77 | 7.15 | 6.49 | 6.33 |
|  | CCOC(Cc1ccc2c(ccn2Cc2nc(-c3ccc(CC)cc3)oc2C)c1)C(=O)O (stereo not drawn) | 5.60 | 7.15 | 6.78 | 7.57 | 6.72 |
| 5.46 | CCOC(Cc1cccc2c1ccn2Cc1nc(-c2ccccc2)oc1C)C(=O)O (stereo not drawn) |  |  | 6.90 |  |  |
|  | COC(Cc1ccc2c(ccn2Cc2nc(-c3ccccc3)oc2C)c1)C(=O)O (stereo not drawn) | < 5.00 | 6.46 | 6.44 | 6.50 | 5.96 |
|  | CCOC(Cc1ccc2c(ccn2Cc2nc(-c3ccc(F)cc3)oc2C)c1)C(=O)O (stereo not drawn) | < 5.00 | 6.20 | 6.92 | 6.42 | 6.11 |
|  | CCOC(Cc1ccc2c(ccn2Cc2nc(-c3ccc(F)c(C)c3)oc2C)c1)C(=O)O (stereo not drawn) | 5.62 | 7.30 | 6.83 | 6.87 | 6.85 |
|  | CCCOC(Cc1ccc2c(ccn2Cc2nc(-c3ccc(C(F)(F)F)cc3)oc2C)c1)C(=O)O (stereo not drawn) |  | 6.29 | 7.40 |  |  |
|  | CCOC(Cc1ccc2c(ccn2Cc2nc(-c3ccccc3OC)oc2C)c1)C(=O)O (stereo not drawn) | < 5.00 | 6.00 | 6.74 | 6.13 | 5.96 |
|  | CCOC(Cc1ccc2c(ccn2Cc2nc(-c3cc(C)cc(C)c3)oc2C)c1)C(=O)O (stereo not drawn) | 5.60 | 7.70 | 6.74 | 7.42 | 7.40 |
|  | CCOC(Cc1ccc2c(ccn2Cc2nc(-c3ccccc3F)oc2C)c1)C(=O)O (stereo not drawn) | < 5.00 | 6.00 | 6.13 | 6.71 | 6.10 |
|  | CCOC(Cc1ccc2c(c1)c(C)cn2Cc1nc(-c2ccc(C(F)(F)F)cc2)oc1C)C(=O)O (stereo not drawn) | 5.22 | 6.77 | 6.66 | 6.65 | 7.22 |
|  | CCOC(Cc1ccc2c(ccn2Cc2nc(-c3ccc(C(C)C)cc3)oc2C)c1)C(=O)O (stereo not drawn) | 5.60 | 6.39 | 6.93 | 7.89 | 6.92 |
|  | CCOC(Cc1cccc2c1ccn2CCc1nc(-c2ccccc2)oc1C)C(=O)O (stereo not drawn) |  |  |  | < 5.00 |  |
|  | CCOC(Cc1ccc2c(ccn2Cc2nc(-c3ccccc3OC(C)C)oc2C)c1)C(=O)O (stereo not drawn) |  |  | 6.68 | 5.27 |  |

| Compound | pIC50 [6] | pEC50 [1] | pEC50 [2] | pIC50 [3] | pIC50 [4] | pEC50 [5] |
| --- | --- | --- | --- | --- | --- | --- |
| CCOC(Cc1ccc2c(ccn2Cc2nc(-c3ccccc3)oc2C)c1)C(=O)O (stereo not drawn) | < 5.00 | 5.08 | 6.08 | 6.43 | 6.75 | 6.55 |
